The target in one data set is T1, 11β-HSD1 (Homo sapiens, UniProt P28845).
T1 construct: expressed in transfected cells; host or cells: HEK 293 (stably transfected, HEK 293/HSD11B1)
The experiment in a line: 11β-HSD1 HEK assay (cell based assay, SPA). On the procedure: 11β-HSD1 HEK Assay Protocol (Cell Based Assay)
11β-HSD1 activity is measured in whole HEK 293 cells stably transfected with the HSD11B1 gene. Cells are incubated in 96-well microplates in the presence of tritiated substrate. Enzyme activity is determined by measuring the amount of tritated product by scintillation proximity assay (SPA). Assay plates contain internal high and low controls to allow calculation of percentage inhibition.
1. […] 2. When the cells are 80% confluent the medium is removed from each well. 100 μl fresh, serum-free, medium containing ^3H-cortisone and test compound in 1% DMSO is added to each well*. Control wells are also dispensed. […] 3. The plate is incubated at 37° C. for the required time period. 4. 50 μl of media is removed from each well and transferred to a microplate containing 100 μl of a pre-incubated mixture of anti-cortisol antibody and SPA bead. The mixture is incubated with gentle shaking until equilibrium is reached, before transferring to a scintillation counter to establish the enzyme activity in each sample.
10 μl of compound is dispensed into each well of a 96-well microplate in 10% DMSO at 100 μM concentration. 90 μl media containing ^3H-cortisone is added to each well. The compound/media/substrate mixture is then transferred to the assay plate containing the cells. […]

[1] abbreviates: HEK293, at 1 μM, whole HEK 293 cells stably transfected with the HSD11B1 gene, 3H-cortisone substrate, read-out: Activity (inhibition of 11β-HSD1).

Read-outs that look alike come from different tables or passages of the source.

T1 sequence (P28845 whole entry): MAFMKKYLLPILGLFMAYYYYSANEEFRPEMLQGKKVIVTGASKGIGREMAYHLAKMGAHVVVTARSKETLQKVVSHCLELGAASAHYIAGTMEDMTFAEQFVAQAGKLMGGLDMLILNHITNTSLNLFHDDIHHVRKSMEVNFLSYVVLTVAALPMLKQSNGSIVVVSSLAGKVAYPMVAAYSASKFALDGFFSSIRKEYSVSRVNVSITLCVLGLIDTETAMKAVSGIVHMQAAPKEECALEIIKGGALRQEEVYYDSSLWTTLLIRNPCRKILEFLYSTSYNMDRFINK

One may read the inhibition as the percentage by which the read-out fell short of the control. What is called melting point is the temperature, or range, at which the solid turns liquid. In turn, `O=C(CS(=O)(=O)c1ccc(C(F)(F)F)cn1)C12CC3CC(CC(C3)C1)C2` [Example 67, 1-Adamantan-1-yl-2-(5-trifluoromethyl-pyridine-2-sulfonyl)-ethanone] gave a melting point of 138 to 139 °C. The inhibition at 1 µM on 11β-HSD1 (setting [1]) fell in the range of 20 to 60%.
`Cn1nnnc1SCC(=O)C12CC3CC(CC(C3)C1)C2` [Example 92, 1-(Adamantan-1-yl)-2-[(1-methyl-1,2,3,4-tetrazol-5-yl)sulfanyl]ethanone] came in with a melting point of 112 to 113 °C. Further, the inhibition at 1 µM at 11β-HSD1 (setting [1]) is more than 60%.
In the case of `O=C(C[S+]([O-])Cc1ccncc1)C12CC3CC(CC(C3)C1)C2` (stereo not drawn) [Example 84, 1-Adamantan-1-yl-2-(pyridin-4-ylmethanesulfinyl)-ethanone], the melting point lay within 119 to 123 °C. In addition, the inhibition at 1 µM on 11β-HSD1 (setting [1]) was more than 60%.
In turn, `CNC(=O)c1ccc(SCC(=O)C23CC4CC(CC(C4)C2)C3)nc1` [Example 36, 6-(2-Adamantan-1-yl-2-oxo-ethylsulfanyl)-N-methyl-nicotinamide] came in with a melting point of 184 to 185.5 °C. Also, the inhibition at 1 µM at 11β-HSD1 (setting [1]) was more than 60%.
The molecule `O=C(C[S+]([O-])Cc1ccccn1)C12CC3CC(CC(C3)C1)C2` (stereo not drawn) [Example 17, 1-Adamantan-1-yl-2-(pyridin-2-ylmethanesulfinyl)-ethanone] returned a melting point of 87 to 88.5 °C. Further, the inhibition at 1 µM at 11β-HSD1 (setting [1]) was more than 60%.
In turn, `O=C(C[S+]([O-])Cc1cccnc1)C12CC3CC(CC(C3)C1)C2` (stereo not drawn) [Example 8, 1-Adamantan-1-yl-2-(pyridin-3-ylmethanesulfinyl)-ethanone] yielded a melting point of 116 to 119 °C. Further, on 11β-HSD1 (setting [1]), the inhibition at 1 µM was more than 60%.
Take `Cc1nnc(SCC(=O)C23CC4CC(CC(C4)C2)C3)n1C` [Example 87, 1-(Adamantan-1-yl)-2-[(4,5-dimethyl-1,2,4-triazol-3-yl)sulfanyl]ethanone]: the melting point fell in the range of 113 to 114 °C. Also, at 11β-HSD1 (setting [1]), the inhibition at 1 µM was more than 60%.
For `O=C(CS(=O)(=O)Cc1ccc(Cl)nc1)C12CC3CC(CC(C3)C1)C2` [Example 64, 1-Adamantan-1-yl-2-(6-chloro-pyridin-3-ylmethanesulfonyl)-ethanone], in that order: 159 to 161 °C and more than 60%.
The like results for `Cc1nnc(SCC(=O)C23CC4CC(CC(C4)C2)C3)n1C(C)C` [Example 103, 1-(Adamantan-1-yl)-2-{[5-methyl-4-(propan-2-yl)-4H-1,2,4-triazol-3-yl]sulfanyl}ethan-1-one] were, in that order, 119 to 120.5 °C and more than 60%.
`O=C(O)c1ccc(SCC(=O)C23CC4CC(CC(C4)C2)C3)nc1` [Example 29, 6-(2-Adamantan-1-yl-2-oxo-ethylsulfanyl)-nicotinic acid] had a melting point of 174 to 176 °C. Besides, the inhibition at 1 µM at 11β-HSD1 (setting [1]) was more than 60%.
On to `Cc1nnc(SCC(=O)C23CC4CC(CC(C4)C2)C3)n1Cc1ccc(Cl)cc1` [Example 105, 1-(Adamantan-1-yl)-2-({4-[(4-chlorophenyl)methyl]-5-methyl-4H-1,2,4-triazol-3-yl}sulfanyl)ethan-1-one], for which the melting point is 158 to 159 °C. The inhibition at 1 µM on 11β-HSD1 (setting [1]) fell in the range of 20 to 60%.
Take `Cn1c(SCC(=O)C23CC4CC(CC(C4)C2)C3)nnc1-c1cccs1` [Example 102, 1-(Adamantan-1-yl)-2-{[4-methyl-5-(thiophen-2-yl)-4H-1,2,4-triazol-3-yl]sulfanyl}ethan-1-one]: the melting point fell in the range of 156 to 157 °C. The inhibition at 1 µM on 11β-HSD1 (setting [1]) is more than 60%.
The like results for `O=C(CS(=O)(=O)Cc1cccc[n+]1[O-])C12CC3CC(CC(C3)C1)C2` [Example 76, 1-Adamantan-1-yl-2-(1-oxy-pyridin-2-ylmethanesulfonyl)-ethanone] were, in that order, 225 to 227.5 °C and more than 60%.
The molecule `Nc1nnc(SCC(=O)C23CC4CC(CC(C4)C2)C3)s1` [Example 88, 1-(Adamantan-1-yl)-2-[(5-amino-1,3,4-thiadiazol-2-yl)sulfanyl]ethanone] showed a melting point of 198 to 199 °C. Also, the inhibition at 1 µM at 11β-HSD1 (setting [1]) was more than 60%.
As to `Cc1nnc(SCC(=O)C23CC4CC(CC(C4)C2)C3)s1` [Example 78, 1-Adamantan-1-yl-2-(5-methyl-[1,3,4]thiadiazol-2-ylsulfanyl)-ethanone], the melting point lay in the range of 102 to 105 °C. The inhibition at 1 µM at 11β-HSD1 (HEK293, read-out: Activity (inhibition of 11β-HSD1)) is more than 60%.
With `Cn1cnnc1S(=O)(=O)CC(=O)C12CC3CC(CC(C3)C1)C2` [Example 77, 1-Adamantan-1-yl-2-(4-methyl-4H-[1,2,4]triazole-3-sulfonyl)-ethanone], the melting point fell in the range of 149 to 150 °C. Also, at 11β-HSD1 (setting [1]), the inhibition at 1 µM is more than 60%.
The molecule `O=C(COc1cccnc1)C12CC3CC(CC(C3)C1)C2` [Example 61, 1-Adamantan-1-yl-2-(pyridin-3-yloxy)-ethanone] gave a melting point of 73 to 75 °C. For the same molecule, the inhibition at 1 µM on 11β-HSD1 (setting [1]) is more than 60%.
The like results for `O=C(CSCc1ccccn1)C12CC3CC(CC(C3)C1)C2` [Example 11, 1-Adamantan-1-yl-2-(pyridin-2-ylmethylsulfanyl)-ethanone] were, in that order, 38 to 39 °C and more than 60%.
For `O=C(Nc1nnc(SCC(=O)C23CC4CC(CC(C4)C2)C3)s1)C1CC1` [Example 95, N-(5-{[2-(Adamantan-1-yl)-2-oxoethyl]sulfanyl}-1,3,4-thiadiazol-2-yl)cyclopropanecarboxamide], in that order: 218 to 219 °C and 20 to 60%.
`O=C(CS(=O)(=O)Cc1ccc[n+]([O-])c1)C12CC3CC(CC(C3)C1)C2` [Example 10, 1-Adamantan-1-yl-2-(1-oxy-pyridin-3-ylmethanesulfonyl)-ethanone] gave a melting point of 182 to 183.5 °C. In addition, the inhibition at 1 µM at 11β-HSD1 (setting [1]) is more than 60%.
Take `CC(=O)Nc1nnc(SCC(=O)C23CC4CC(CC(C4)C2)C3)s1` [Example 91, N-(5-{[2-(Adamantan-1-yl)-2-oxoethyl]sulfanyl}-1,3,4-thiadiazol-2-yl)acetamide]: the melting point lay within 208 to 210 °C. Further, on 11β-HSD1 (setting [1]), the inhibition at 1 µM is more than 60%.
Consider `O=C(CSCc1ccc(Cl)nc1)C12CC3CC(CC(C3)C1)C2` [Example 62, 1-Adamantan-1-yl-2-(6-chloro-pyridin-3-ylmethylsulfanyl)-ethanone], for which the melting point was in the range of 88 to 90 °C. Also, the inhibition at 1 µM at 11β-HSD1 (setting [1]) fell in the range of 20 to 60%.
Take `Cc1cccc([S+]([O-])CC(=O)C23CC4CC(CC(C4)C2)C3)n1` (stereo not drawn) [Example 31, 1-(adamantan-1-yl)-2-[(6-methylpyridine-2-)sulfinyl]ethan-1-one]: the melting point is 75 to 76 °C. The inhibition at 1 µM at 11β-HSD1 (setting [1]) is more than 60%.
Turning to `O=C(Nc1nnc(S(=O)(=O)CC(=O)C23CC4CC(CC(C4)C2)C3)s1)C1CC1` [Example 97, N-(5-{[2-(Adamantan-1-yl)-2-oxoethane]sulfonyl}-1,3,4-thiadiazol-2-yl)cyclopropanecarboxamide], the melting point is 209 to 211 °C. Besides, the inhibition at 1 µM at 11β-HSD1 (setting [1]) is more than 60%.

The record behind these values is US20110112151A1, “COMPOUND CAPABLE OF INHIBITING 11-BETA HYDROXYSTERIOD DEHYDROGENASE” (priority 2008, published 2011).
